Measured values taken from patent US6376670B1, “Quinoline-indole antimicrobial agents, uses and compositions related thereto” (Sepracor Inc., priority 1997, dated 2002).
Where two headings read alike, the source gives them in different places.

Experiments:
[1] = Acute in vivo toxicity in mice, intraperitoneal injection; conditions: in 10% w/v hydroxypropyl-β-cyclodextrin in 0.9% w/v saline, 5 mice
Experimental: Solutions of compounds in 10% w/v hydroxypropyl-β-cyclodextrin in 0.9% w/v saline were prepared. Doses of 40 mg/kg or 120 mg/kg of each compound were administered to mice (5 mice/compound/dose) via intraperitoneal injections. The mice […] for seven days.

Streptococcus pneumoniae = test: Determination of MIC values (BHI broth, 96 well microtiter plate); assay type: cell-based; conditions: Streptococcus pneumoniae, BHI broth, read-out: MIC S. pneu
How it was run: (§1)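 Organisms are grown in BHI at 37° C (about 7% CO2) to a 0.5 McFarland standard, then inoculated at 10^5 to 10^6 cells/mL into BHI holding twofold compound dilutions (final 25 down to 0.39 µg/mL, DMSO-diluted). After overnight incubation, MIC is the lowest concentration lacking growth.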

[2] = test system: methicillin-resistant Staphylococcus aureus (MRSA); test: as above; assay type: cell-based; conditions: Staphylococcus aureus, MRSA, BHI broth, read-out: MIC MRSA
How it was run: as §1

[3] = test system: vancomycin-resistant Enterococcus spp. (VRE); test: as above; assay type: cell-based; conditions: Enterococcus, VRE, BHI broth, read-out: MIC VREF
How it was run: as §1

[4] = 37° C., overnight (about 16 hours)
[5] = 16 h, 37° C., overnight (about 16 hours)

| SMILES | MIC (Streptococcus pneumoniae; S. pneu, overnight 37° C.) [µg/mL] | MIC ([2]; overnight 37° C.) [µg/mL] | MIC ([3]; VREF, overnight 37° C.) [µg/mL] | also measured |
| --- | --- | --- | --- | --- |
| COc1ccc2nc(-c3c[nH]c4ccc(Cl)cc34)ccc2c1 [Example 417] |  |  |  | Mice Surviving on Day 7 ([1]; 40 mg/kg intraperitoneal): 100%; Mice Surviving on Day 7 ([1]; 120 mg/kg intraperitoneal): 100% |
| Cn1cc(-c2cc(C(=O)NCCN)c3ccc(Cl)cc3n2)c2cc(Br)ccc21 [Example 420] |  |  |  | MIC (Streptococcus pneumoniae; 37° C., about 16 hours): < 7 µg/mL; MIC ([2]; 16 h, 37° C., about 16 hours): < 7 µg/mL; MIC ([3]; 16 h, 37° C., about 16 hours): < 7 µg/mL; Mice Surviving on Day 7 ([1]; 40 mg/kg intraperitoneal): 100%; Mice Surviving on Day 7 ([1]; 120 mg/kg intraperitoneal): 100% |
| NCCNC(=O)c1cc(-c2c[nH]c3ccc(Br)cc23)nc2cc(Cl)c(C#CCN3CCCCC3)cc12 [Example 380] | < 7 | < 7 | < 7 | Mice Surviving on Day 7 ([1]; 40 mg/kg intraperitoneal): 100%; Mice Surviving on Day 7 ([1]; 120 mg/kg intraperitoneal): 0% |
| NCC1CCC(CNC(=O)c2cc(-c3c[nH]c4ccc(Br)cc34)nc3c(Cl)c(Cl)ccc23)CC1 (centres unmarked) [Example 277] | < 7 | < 7 | < 7 |  |
| NCCNC(=O)c1cc(-c2c[nH]c3ccc(Br)cc23)nc2ccc(C#CCN3CCCCC3)cc12 [Example 418] |  |  |  | MIC (Streptococcus pneumoniae; 37° C., about 16 hours): < 7 µg/mL; MIC ([2]; 16 h, 37° C., about 16 hours): < 7 µg/mL; MIC ([3]; 16 h, 37° C., about 16 hours): < 7 µg/mL; Mice Surviving on Day 7 ([1]; 40 mg/kg intraperitoneal): 100%; Mice Surviving on Day 7 ([1]; 120 mg/kg intraperitoneal): 0% |
| O=C(c1cc(-c2c[nH]c3ccc(Br)cc23)nc2ccc(I)cc12)N1CCCNCC1 [Example 117] |  |  |  | MIC (Streptococcus pneumoniae; [4]): < 7 µg/mL; MIC [2, 5]: < 7 µg/mL; MIC [3, 5]: < 7 µg/mL |
| CN(CC#Cc1ccc2nc(-c3cn(C)c4ccc(Br)cc34)cc(C(=O)NCc3ccc(CN)cc3)c2c1)C1CCCCC1 [Example 397] | < 7 | < 7 | < 7 |  |
| NCc1ccc(CNC(=O)c2cc(-c3c[nH]c4ccc(Br)cc34)nc3c(C#CCN4CCSCC4)cccc23)cc1 [Example 271] | < 7 | < 7 | < 25 |  |
| O=C(NCc1nc2ccccc2[nH]1)c1cc(-c2c[nH]c3ccc(Br)cc23)nc2ccc(C(F)(F)F)cc12 [Example 172] |  |  |  | MIC (Streptococcus pneumoniae; [4]): < 7 µg/mL; MIC [2, 5]: < 7 µg/mL; MIC [3, 5]: > 25 µg/mL |
| NCCNC(=O)c1cc(-c2c[nH]c3ccc(Br)cc23)nc2cc(Cl)ccc12 [Example 487] |  |  |  | MIC (Streptococcus pneumoniae; 37° C., about 16 hours): < 7 µg/mL; MIC ([2]; 16 h, 37° C., about 16 hours): < 7 µg/mL; MIC ([3]; 16 h, 37° C., about 16 hours): < 7 µg/mL |
| Cn1cc(-c2cc(C(=O)NCCN)c3cc(C#CCN4CCc5ccccc5C4)ccc3n2)c2cc(Br)ccc21 [Example 404] |  |  |  | MIC (Streptococcus pneumoniae; 37° C., about 16 hours): < 7 µg/mL; MIC ([2]; 16 h, 37° C., about 16 hours): < 7 µg/mL; MIC ([3]; 16 h, 37° C., about 16 hours): < 7 µg/mL |
| NCc1ccc(COCc2cc(-c3c[nH]c4ccc(Br)cc34)nc3ccc(C(F)(F)F)cc23)cc1 [Example 154] |  |  |  | MIC (Streptococcus pneumoniae; [4]): < 7 µg/mL; MIC [2, 5]: < 7 µg/mL; MIC [3, 5]: < 7 µg/mL |

The next lines start with results.

| MIC (Streptococcus pneumoniae; S. pneu, overnight 37° C.) [µg/mL] | MIC ([2]; overnight 37° C.) [µg/mL] | MIC ([3]; VREF, overnight 37° C.) [µg/mL] | SMILES | also measured |
| --- | --- | --- | --- | --- |
| < 7 | < 7 | < 7 | NCc1ccc(CNC(=O)c2cc(-c3c[nH]c4ccc(Br)cc34)nc3cc(Cl)c(C#CCN4CCSCC4)cc23)cc1 [Example 272] |  |
| < 7 | < 7 | < 7 | NCCNC(=O)c1cc(-c2c[nH]c3ccc(Br)cc23)nc2cc(F)ccc12 [Example 321] |  |
| < 7 | < 7 | < 25 | CC(=O)Oc1cccc2[nH]cc(-c3ccc4cc(Cl)ccc4n3)c12 [Example 204] |  |
| < 7 | < 25 | > 25 | Fc1cccc2[nH]cc(-c3cc(Cl)c4ccccc4n3)c12 [Example 338] |  |
| < 7 | < 7 | < 7 | Cn1cc(-c2cc(C(=O)NCc3cccc(CN)c3)c3ccc(I)cc3n2)c2cc(Br)ccc21 [Example 330] |  |
| > 25 | > 25 | > 25 | Cn1cc(-c2cc(C(=O)NCc3cccc(CN)c3)c3cc(Cl)ccc3n2)c2cc(Br)ccc21 [Example 366] |  |
